# Patent US5981219A, “DNA molecules which code for a plastid 2-oxoglutarate/malate translocator” (Hoechst Schering Agrevo GmbH, priority 1919, dated 1999)
# What was measured:
# [1] = target: T1, recombinant 2-oxoglutarate/malate translocator (transformed SP-DC3 cells) (Spinacia oleracea, UniProt Q41364); assay: Reconstituted malate transport activity (inhibitor stop method), recombinant protein from transformed SP-DC3 yeast cells in liposomes; assay type: biochemical, spinach (expressed in Schizosaccharomyces pombe); details: for transport activity, percentage of activity measured with malate-preloaded liposomes: recombinant protein (transformed SP-DC3 cells), liposomes preloaded with the indicated dicarboxylate, standard deviation in brackets
# T1 construct: made in house; host or cells: Schizosaccharomyces pombe (SP-DC3 cells, plasmid pEVP11-211)
# T1 sequence (Q41364 94-569): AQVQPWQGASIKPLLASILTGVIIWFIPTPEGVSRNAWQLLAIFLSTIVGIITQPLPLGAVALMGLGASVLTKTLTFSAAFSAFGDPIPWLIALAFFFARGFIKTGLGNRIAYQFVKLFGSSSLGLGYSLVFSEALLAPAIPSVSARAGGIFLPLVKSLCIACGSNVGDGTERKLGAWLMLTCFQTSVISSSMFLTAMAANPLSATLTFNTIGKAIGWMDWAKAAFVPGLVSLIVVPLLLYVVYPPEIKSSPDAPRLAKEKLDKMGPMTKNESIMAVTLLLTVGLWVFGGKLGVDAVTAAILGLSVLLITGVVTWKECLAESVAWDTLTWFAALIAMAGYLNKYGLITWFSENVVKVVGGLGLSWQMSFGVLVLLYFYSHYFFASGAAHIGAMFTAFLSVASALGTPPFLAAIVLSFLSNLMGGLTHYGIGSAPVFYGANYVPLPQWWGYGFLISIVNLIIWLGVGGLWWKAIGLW
# Method: (§1) Yeast cells transformed with pEVP11-211 plasmid (see FIG. 2A, SP-DC3 cells) were grown in minimum essential medium up to an optical density of 1.0 at 600 nm and harvested by centrifugation at 3,000×g for 5 minutes. The cells were disrupted by vigorously shaking the mixture with 1/2 vol. (based on the cells) glass beads and glass beads and cell debris were separated by centrifugation (600 g for 1 minute). The supernatant was adjusted to a concentration of 0.5% (weight/volume) Triton X-100, an equal volume of liposomes was added to the mixture and the resulting proteoliposomes were immediately frozen in liquid nitrogen. The liposomes were previously prepared by sonification of soy bean phospholipid (20 mg/ml for 10 minutes at 4° C. in the presence of 200 mM tricine NaOH (pH 7.6), 40 mM malate and 60 mM potassium gluconate. After thawing of the proteoliposomes and sonification of the suspension with 10 pulses a 1 s the proteoliposomes were separated from the surrounding medium by size exclusion chromatography on Sephadex G-25 which had been equilibrated with 10 mM tricine NaOH (pH 7.6), 100 mM sodium gluconate and 50 mM potassium gluconate. The eluted proteoliposomes were used for measuring malate transport activity. The measurement was carried out according to the "inhibitor stop" method described by Menzlaff and Flugge (1993, Biochim. Biophys. Acta 1147:13-18).
# The malate transport activity in the pEVP11-211 transformants was compared with the malate transport activity of transformants that were merely transformed with the vector pEVP11 without the 211 insert.
# [2] = target: T2, 2-oxoglutarate/malate translocator, envelope membrane of spinach chloroplasts (Spinacia oleracea, UniProt Q41364); assay: Reconstituted malate transport activity, envelope membrane proteins of spinach chloroplasts in liposomes; assay type: biochemical; details: for transport activity, percentage of activity measured with malate-preloaded liposomes: envelope membrane of spinach chloroplasts, liposomes preloaded with the indicated dicarboxylate, standard deviation in brackets
# T2 construct: it is cleaved during the import process by a specific protease; the mature protein (m) is formed; from tissue; host or cells: spinach chloroplast envelope membranes
# T2 sequence (Q41364 94-569): T1 sequence (Q41364 94-569)
# Method: as §1
# Whole yeast protein, envelope membrane proteins and the purified
# 2oxyoglutarate/malate translocator were reconstituted in liposomes which
# were preloaded with the indicated dicarboxylates. The transport activitie
# were measured as described by Menzlaff and Flugge (Biochim. Biophys. Acta
# 1993, 1147: 13-18) and are indicated in the percentage of activity
# measured with malatepreloaded liposomes. The standard deviations are
# indicated in brackets. The 100% transport activities (nMol/mg # protein
# per minute) were 0.8 (recombinant protein), 21.4 (envelope membranes) and
# 263 (purified translocator protein).
# [3] = system: protein import into intact spinach chloroplasts; assay: Import of in vitro translated translocator precursor protein into intact spinach chloroplasts (SDS-PAGE, fluorography); details: light conditions, 10 μM CCCP (lane 8, FIG. 3)
# Method: FIG. 3: Targeting of the 2-oxoglutarate/malate translocator precursor protein to the chloroplasts and energy-dependent insertion of the mature protein in the inner envelope membrane
# SDS polyacrylamide gel electrophoresis was carried out as described in Example 6:
# Lane 8: plus decoupling agent (10 μM CCCP) Lane 9: plus 2 mM ATP; protease-pretreated chloro-plasts (30 μg/ml)
# The in vitro transcription of plasmid pBSC-211 which was linearized with SmaI was carried out using T3 RNA polymerase according to the instructions of the manufacturer (Pharmacia). Subsequent in vitro translation was carried out in the reticulocyte lysate (Boehringer-Mannheim). The post-ribosomal supernatant was used for protein transports in intact spinach chloroplasts. The experiment was carried out in the dark as well as in the light; the preparation contained import buffer (Flugge et al., 1989, EMBO J. 8:39-46), intact spinach chloroplasts (corresponding to 200 […]) and various additives indicated in the legend to FIG. 3 (entire volume: […]). After 15 minutes at 25° C. the chloroplasts were washed and the envelope membranes […] (Flugge et al., 1989, EMBO J. 8:39-46) […]. They were analyzed in a SDS polyacrylamide gel electrophoresis (Laemmli, 1970, Nature 227:680-685) and subsequent fluorography (Bonner and Laskey, 1974, Eur. J. Biochem. 46:84-88) (FIG. 3). […]
# [4] = system: purified 2-oxoglutarate/malate translocator protein; details: cited from earlier work; for transport activity, percentage of activity measured with malate-preloaded liposomes: liposomes preloaded with the indicated dicarboxylate
SMILES,"transport activity, percentage of activity measured with malate-preloaded liposomes [1]","transport activity, percentage of activity measured with malate-preloaded liposomes [2]",protein import into chloroplasts [3],"transport activity, percentage of activity measured with malate-preloaded liposomes [4] [%]","100% transport activity ([1]; malate-preloaded liposomes, recombinant protein)","100% transport activity ([2]; malate-preloaded liposomes, envelope membranes)",100% transport activity ([4]; malate-preloaded liposomes)
O=C(O)CCC(=O)C(=O)O [2-Oxoglutarate],44 (±14) %,46 (±2) %,–,–,–,–,–
N[C@@H](CC(=O)O)C(=O)O [Aspartate],13 (±4) %,12 (±1) %,–,–,–,–,–
N#CC(C#N)=NNc1cccc(Cl)c1 [CCCP],–,–,the protein import is blocked,–,–,–,–
O=C(O)/C=C/C(=O)O [Fumarate],119 (±24) %,72 (±2) %,–,65,–,–,–
N[C@@H](CCC(=O)O)C(=O)O [Glutamate],3 (±1) %,6 (±1) %,–,–,–,–,–
O=C(O)CCCC(=O)O [Glutarate],63 (±14) %,52 (±1) %,–,–,–,–,–
O=C(O)CC(O)C(=O)O (stereo not drawn) [Malate],100%,100%,–,100,0.8 nMol/mg protein per minute,21.4 nMol/mg protein per minute,263 nMol/mg protein per minute
O=C(O)CCC(=O)O [Succinate],83 (±12) %,74 (±2) %,–,63,–,–,–
